Earlier results, collected in patent publication US20160051475A1, “Sustained Release Composition Comprising an Amine as Active Agent and a Salt of a Cyclic Organic Acid” (Upsher-Smith Laboratories, Inc., priority 2010, published 2016).

pKa: 9.7
Compound: CC(=O)Nc1ccc(O)cc1 [acetaminophen]
